Entries after “also recorded” stand apart in the source; their conditions may differ. Like-named read-outs stand apart in the source and are kept apart here. Where no end group is shown, it is not given here. [ ]: non-standard residue; d: D form. Cit = NC(=O)NCCC[C@H](N)C(=O)O
Assays:
[1] = test system: anti-SmD1 IgG antibodies; details: cited from earlier work
[2] = test system: anti-VCP2 antibodies (IgG) from RA sera; assay: ELISA of affinity-purified anti-VCP2 antibodies from RA sera (Example 5); format: binding, human; details: four preparations from 4 different RA sera
Procedure: FIG. 4. Isolation of anti-VCP2 antibodies from RA sera was performed according to the method described in example 4.
A citrullinated peptide or MAP according to the present invention was conjugated to CNBr-activated sepharose according to standard procedures known by one skilled in the art. Total immunoglobulins from sera containing anti-CP antibodies were precipitated with 50% saturated ammonium sulfate; the precipitates were dissolved in phosphate buffer (pH 7.4) and dialyzed overnight against PBS. Enriched immunoglobulin preparations were applied to the column, and the flowthrough was collected for subsequent analysis. The column was extensively washed with 20 mM Na2HPO4, 150 mM NaCl (pH 7.2), and the antibodies bound to the column were eluted by 0.1 M glycine buffer (pH 2.8) (0.5 ml/fraction), immediately neutralized with 50 μl Tris 1M (pH 8.0), and dialyzed overnight against PBS. The anti-CP antibody content in the eluates and flowthrough was tested by ELISA.

[3] = test system: IgG antibodies in RA and NHS sera; assay: ELISA with differently citrullinated EBNA-2(338-358) peptides (Example 6); format: binding, human; details: for NHS positive sera: 23 normal healthy subjects; for NHS positive sera / RA positive sera: positive = greater than 97.5th percentile of normal control group; for RA positive sera: 24 RA patients; for reactivity with RA sera (in words): 24 RA sera, relevant = more than 25% positive
From the text: The role of the number and of the position of citrullines inside EBNA-2(338-358) sequence in the detection of specific antibodies in RA sera was investigated by means of differently citrullinated peptides (Table 1).
It is believed that these two positions relate to two different antigenic regions.

[4] = test system: anti-VCP1 antibodies in RA and control sera; details: cited from earlier work
[5] = test system: autoantibodies in RA sera; assay: 79 RA patients tested for anti-CCP2, anti-CCP3, anti-VCP1 and anti-VCP2 (FIG. 1); format: binding, human; details: for RA sera containing antibodies reacting with either one of the two MAP: comparison of MAP of formula (V) and MAP of formula (VI); for anti-CCP2 and anti-CCP3 negative sera positive to the peptide: of 79 RA patients; for anti-CCP2 and anti-CCP3 negative serum positive to both peptides: of 79 RA patients (1/79); for positive RA sera: population of 79 RA patients
From the text: FIG. 1. […] The presence of different populations of autoantibodies is depicted in the block diagram. Number of RA sera positive (+) or negative (−) to anti-CCP2, anti-CCP3, anti-VCP1 [peptide of formula (VI)], and anti-VCP2 [peptide of formula (V)] are shown above the diagram.
Noteworthy, 7/79 (9%) anti-CCP2 and anti-CCP3 negative sera are positive to the peptide of formula (VI); 2/79 (3%) anti-CCP2 and anti-CCP3 negative sera are positive to peptide of formula (V); 1/79 (1%) anti-CCP2 and anti-CCP3 negative serum is positive to both peptides of formula (V) and formula (VI). Thus, formula (V) and (VI) allow to detect antibodies in a subgroup of anti-CCP negative RA patients (FIG. 1).

[6] = test system: anti-CP IgG antibodies in RA patients' serum; details: cut-off 97.5th percentile of normal controls; for anti-CP MAP antibodies found in the RA cohort: 100 RA patients, IgG
Procedure: The ability to recognize specific antibodies in RA patients by MAP of formula (V), in comparison with the MAP of formula (VI) was evaluated by ELISA.
MAP of formula (V) and MAP of formula (VI) were diluted respectively to a concentration of 20 μg/ml and 5 μg/ml in PBS, loaded into the wells of a polystyrene micro-titration plate (50 μl/well), and left overnight at +4° C. Upon completion of the coating period, the wells were treated for 1 hour at RT with 3% BSA in PBS. The patients' serum samples (diluted 1:200 in a buffer constituted by 1% BSA, 0.05% Tween X-100 in PBS) were then loaded onto the plate (50 μl/well) and left to incubate for 3 hours at RT. After the incubation period, one washing was performed with 1% PBS Tween X-100 and two washings were performed with PBS (150 μl/well). An anti human-IgG antibody conjugated to the enzyme alkaline phosphatase (50 μl/well), diluted 1:3000 in 1% PBS BSA, 0.05% Tween X-100, was incubated for 3 hours at RT with stirring. Upon completion of the incubation, after three washings as described above, p-nitrophenyl phosphate was added to the wells and the absorbance at a wavelength of 405 nm was determined. The results of the test were expressed as the percentage of positivity, calculated by dividing the absorbance of each serum sample by the absorbance of a positive serum sample the value of which was set arbitrarily at 100.
Serum samples of 100 patients suffering from RA were tested by this method.

[7] = test system: anti-citrullinated peptides/proteins antibodies (ACPA) in serum; details: 206 disease controls
Procedure: The MAP of the citrullinated peptide antigens according to the invention was diluted to a concentration of 20 μg/ml in phosphate buffered saline (PBS) and loaded into the wells of a polystyrene micro-titration plate (50 μl/well). […] Upon completion of the coating period, the wells containing the antigen, plus an equal number of wells which were used as controls, were treated for 1 hour at room temperature (RT) with 3% bovine serum albumin (BSA) in PBS. The patients' serum samples (diluted 1:200 in a buffer constituted by 1% BSA, 0.05% Tween X-100 in PBS) were then loaded onto the plate (50 μl/well) and left to incubate for 3 hours at RT. After the incubation period, one washing was performed with 1% PBS Tween X-100 and two washings were performed with PBS (150 μl/well). […] Upon completion of the incubation, after three washings as described above, the alkaline phosphatase substrate (p-nitrophenyl phosphate) was added to the wells and, in the presence of the enzyme, it produced a yellow product measurable by spectrophotometric techniques at a wavelength of 405 nm; its quantity was proportional to the titre of antibodies bound. The results of the test were expressed as the percentage of positivity, calculated by dividing the absorbance of each serum sample by the absorbance of a positive serum sample the value of which was set arbitrarily at 100.

[8] = test system: anti-CP antibodies (IgG, IgM, IgA) in patients' serum samples
Procedure: The MAP of the citrullinated peptide antigens according to the invention was diluted to a concentration of 20 μg/ml in phosphate buffered saline (PBS) and loaded into the wells of a polystyrene micro-titration plate (50 μl/well). […] Upon completion of the coating period, the wells containing the antigen, plus an equal number of wells which were used as controls, were treated for 1 hour at room temperature (RT) with 3% bovine serum albumin (BSA) in PBS. The patients' serum samples (diluted 1:200 in a buffer constituted by 1% BSA, 0.05% Tween X-100 in PBS) were then loaded onto the plate (50 μl/well) and left to incubate for 3 hours at RT. After the incubation period, one washing was performed with 1% PBS Tween X-100 and two washings were performed with PBS (150 μl/well). […] The antibody (50 μl/well) was then incubated for 3 hours at RT with agitation. Upon completion of the incubation, after three washings as described above, the alkaline phosphatase substrate (p-nitrophenyl phosphate) was added to the wells and, in the presence of the enzyme, it produced a yellow product measurable by spectrophotometric techniques at a wavelength of 405 nm; its quantity was proportional to the titre of antibodies bound. The results of the test were expressed as the percentage of positivity, calculated by dividing the absorbance of each serum sample by the absorbance of a positive serum sample the value of which was set arbitrarily at 100.
Serum samples of 104 patients suffering from RA, 97 normal healthy subjects (NHS), and 194 disease controls (systemic lupus erythematosus, systemic scleroderma, Sjogren syndrome, mixed cryoglobulinemia, psoriasic arthritis, ankylosing spondilytis, rheumatic polymialgia and infectious mononucleosis) were tested by this method using the peptide of formula (V).

[9] = WO2004087747, MAP as coating antigen

## EBNA-2(354-373): non deiminated sequence EBNA2(354-373) of Incaprera et al.
[1]; Incaprera et al. 1998
  IgG detection in IM and SLE sera: detection of IgGs
[1]; systemic lupus erythematosus autoimmunity
  antibody recognition: recognizes anti-SmD1 IgG antibodies

## GQSRGQSRGRGRGRGRGRGKG [EBNA2(338-358), reference compound]
[2]
  reactivity of purified anti-VCP2 IgG with the antigen: no binding
[3]
  NHS positive sera: 0/23
  RA positive sera: 3/24
  reactivity with RA sera (in words): does not react with RA sera; also recorded: does not recognize IgG antibodies in a relevant number of RA sera

## (G G D N H G Cit G Cit G Cit G Cit G Cit G G G Cit P G A P G)4 K2 K beta-Alanine [VCP1]
[4]; Anzilotti et al. 2006, 300 RA patients
  anti-VCP1 antibodies found in RA sera: 45%
[4]; Anzilotti et al. 2006, 327 controls
  anti-VCP1 antibodies found in controls: less than 5%
[4]; Pratesi et al. 2006
  antibodies detected in RA sera: 50%
  antibodies detected in normal and disease control sera: less than 5%
[4]; [9]
  antibodies detected in RA sera: 45%
  specificity: 95%
[5]
  RA sera containing antibodies reacting with either one of the two MAP: 15%
  anti-CCP2 and anti-CCP3 negative sera positive to the peptide: 9%
  anti-CCP2 and anti-CCP3 negative serum positive to both peptides: 1%
  positive RA sera: 62%
[6]
  anti-CP MAP antibodies found in the RA cohort: 47%

## (G Q S Cit G Q S Cit G Cit G Cit G Cit G Cit G Cit G K G)4 K2 K beta-Alanine [VCP2]
[2]
  reactivity of purified anti-VCP2 IgG with the antigen: very high reactivity
[7]; 100 RA, 100 NHS
  specificity in detecting ACPA in RA patients: high specificity
[7]; in particular IM and SLE
  antibodies detected in disease controls: no antibodies were detected
[5]
  RA sera containing antibodies reacting with either one of the two MAP: 15%
  anti-CCP2 and anti-CCP3 negative sera positive to the peptide: 3%
  anti-CCP2 and anti-CCP3 negative serum positive to both peptides: 1%
  positive RA sera: 52%
[8]; 97 NHS and 194 disease controls
  anti-CP antibodies found in normal healthy subjects and disease controls: less than 5%
[8]; 104 RA patients (41/104), cut-off 97.5th percentile of normal controls
  anti-CP IgA antibodies found in RA serum samples: 40%
[8]; 104 RA patients (48/104), cut-off 97.5th percentile of normal controls
  anti-CP IgM antibodies found in RA serum samples: 46%
[8]; 104 RA patients (67/104), cut-off 97.5th percentile of normal controls
  anti-CP IgG antibodies found in RA serum samples: 64%
[6]
  anti-CP MAP antibodies found in the RA cohort: 64%
  specificity: 95%

## GQSRGQSCitGRGCitGRGRGCitGKG (GQSRGQS[Cit]GRG[Cit]GRGRG[Cit]GKG)
[3]
  NHS positive sera: 0/23
  RA positive sera: 8/24

## GQSRGQSRGCitGRGRGRGRGKG (GQSRGQSRG[Cit]GRGRGRGRGKG) [[Cit^347]EBNA2(338-358)]
[3]
  NHS positive sera: 1/23
  RA positive sera: 6/24

## GQSRGQSCitGRGCitGRGRGRGKG (GQSRGQS[Cit]GRG[Cit]GRGRGRGKG) [[Cit^345, Cit^349]EBNA2(338-358)]
[3]
  NHS positive sera: 0/23
  RA positive sera: 15/24
  reactivity with RA sera (in words): most active and selective di-citrullinated peptide

## GQSRGQSRGRGRGCitGRGCitGKG (GQSRGQSRGRGRG[Cit]GRG[Cit]GKG; not fully specified) [[Cit^349, Cit^355]EBNA2(338-358)]
[3]
  NHS positive sera: 0/23
  RA positive sera: 9/24

From patent publication US8900880B2, “Viral citrullinated peptides and uses thereof” (Toscana Biomarkers S.R.L., priority 2009, dated 2014)
